Experimental data from patent publication US20220220115A1, “HETEROCYCLIC COMPOUNDS AND USES THEREOF” (Nuvation Bio Inc., priority 2019, published 2022).
pIC50: −log10 of the molar value.

Assays:
WEE1 kinase enzyme = target: T1, WEE1 kinase enzyme (Homo sapiens, UniProt P30291); experiment: WEE1 IC50 determination, LanthaScreen Terbium Labeled TR-FRET kinase assay; format: biochemical; settings: WEE1 enzyme 1 nM, ATP 10 μM
T1 construct: purchased Invitrogen, Life Technologies PR7373A
Description: IC50 values of compounds against WEE1 kinase enzyme were determined by LanthaScreen™ Terbium Labeled TR-FRET assay. Kinase assays were performed in 1× kinase buffer (#PV6135, Invitrogen, Life Technologies Grand Island, N.Y.) where total reaction volume was 10 μL in low-volume 384-well plates (#4511, Corning). Serially diluted compounds (3-fold) were incubated with WEE1 Enzyme (1 nM) (#PR7373A, Invitrogen, Life Technologies Grand Island, N.Y.) for 10 min, and a mixture of ATP (10 μM) (#A1852, Sigma, St. Louis, Mo.) and fluorescent-PolyGT substrate (200 nM) (#PV3610, Invitrogen, Life Technologies, Grand Island, N.Y.) was added and incubated in dark at room temperature for 1 h. After 1 h, 10 μL stop solution containing Terbium labeled antibody (4 nM) (#PV3529, Invitrogen, Life Technologies Grand Island, N.Y.) and EDTA (#E5134, Sigma, St. Louis, Mo.) (20 mM) in TR-FRET dilution buffer (#PV3574, Invitrogen, Life Technologies, Grand Island, N.Y.) was added. Readings were taken in a Synergy Neo Plate reader (BioTek, Winooski, Vt.) at single excitation of 340 nm and dual emission at 495 nm and 520 nm respectively.
The % activity of test samples was calculated as (Sample−Min)*100/(Max−Min). [Max: DMSO control, complete reaction with enzyme & DMSO and Min: No enzyme & DMSO]. Percent inhibition (100−% activity) was fitted to the “four-parameter logistic model” in XLfit for determination of IC50 values.

A427 cell line = experiment: Cytotoxicity assay in A427 cell line (resazurin); format: cell-based; settings: Homo sapiens, A-427, A427 cells, 72 hr incubation, inhibition of proliferation
Description: A427 (HTB-53; ATCC), a lung epithelial cell line, was seeded in medium (MEM, 41090101; Gibco) at a cell count of 1500 cells per 100 μL per well in a 96 well edge plate (167425; ThermoFisher). Cells were allowed to grow at 37° C. for 24 hr in 5% CO2 environment (culture conditions) in a Nuaire incubator (humidified). Serially diluted test compounds (100 μL) within the desired testing concentration ranges were added to the culture plate and the cells were further incubated in culture conditions for 72 hr. The experiment was terminated at the designated incubation time by replacing the medium with 100 μL of 1 mM of resazurin (R7017; Sigma) prepared in culture medium, and the plates were further incubated in culture conditions for 4-6 hr. Fluorescence was recorded using a multimodal plate reader (Biotek Synergy Neo) at an excitation wavelength of 535 nm and emission wavelength of 590 nm to obtain relative fluorescence units. Data were analysed as follows: the background fluorescence (blank containing only medium) value was subtracted from each reading and normalized with the vehicle control (DMSO treated cells) to obtain percent survival/proliferation. Percent survival was subtracted from 100 to get the percent inhibition of proliferation which was used to calculate IC50 values. Potency of compounds in other cell lines (such as A549, As-Pc-1, Panc 10.05, A172, U-87 MG) may be determined in an analogous manner.

[1] = system: phospho-CDC2 (Tyr15) in A427 cells; experiment: Phospho-CDC2 (Tyr15) sandwich ELISA in A427 cells; format: cell-based; settings: Homo sapiens, A-427, treatment for a specified time (e.g., 24 hr)
Description: Changes in the levels of phospho-CDCl2 following treatment of cells with test compounds were assessed by enzyme-linked immunosorbent assay (ELISA). A427 cells were plated in 6-well plates and cultured for 24 hr to approximately 80-90% confluency. Medium was replaced, and the cells were treated with the vehicle control or the test compound at several different concentrations. After incubation of treated cells in cell culture conditions for a specified time (e.g., 24 hr), cells were rinsed with ice-cold PBS and lysed in 1× cell lysis buffer containing protease inhibitors and phosphatase inhibitors. The cells were scraped from the plate with a cell scraper after a brief incubation on ice and transferred to a centrifuge tube, and then subjected to three freeze-thaw cycles in liquid nitrogen and a 37° C. water bath for further lysis. The lysates were centrifuged to pellet cell debris (using, for example, a 10 min centrifugation of 2000×g at 4° C.) and the supernatants transferred to fresh tubes on ice. The protein concentrations of the samples were estimated by the Bradford method or equivalent. The ELISA was carried out with the PathScan® Phospho-CDCl2 (Tyr15) Sandwich ELISA Kit (Cat. #7176, Cell Signaling Technology, Danvers, Mass.) according to the manufacturer's instructions.

T1 sequence (P30291 whole entry): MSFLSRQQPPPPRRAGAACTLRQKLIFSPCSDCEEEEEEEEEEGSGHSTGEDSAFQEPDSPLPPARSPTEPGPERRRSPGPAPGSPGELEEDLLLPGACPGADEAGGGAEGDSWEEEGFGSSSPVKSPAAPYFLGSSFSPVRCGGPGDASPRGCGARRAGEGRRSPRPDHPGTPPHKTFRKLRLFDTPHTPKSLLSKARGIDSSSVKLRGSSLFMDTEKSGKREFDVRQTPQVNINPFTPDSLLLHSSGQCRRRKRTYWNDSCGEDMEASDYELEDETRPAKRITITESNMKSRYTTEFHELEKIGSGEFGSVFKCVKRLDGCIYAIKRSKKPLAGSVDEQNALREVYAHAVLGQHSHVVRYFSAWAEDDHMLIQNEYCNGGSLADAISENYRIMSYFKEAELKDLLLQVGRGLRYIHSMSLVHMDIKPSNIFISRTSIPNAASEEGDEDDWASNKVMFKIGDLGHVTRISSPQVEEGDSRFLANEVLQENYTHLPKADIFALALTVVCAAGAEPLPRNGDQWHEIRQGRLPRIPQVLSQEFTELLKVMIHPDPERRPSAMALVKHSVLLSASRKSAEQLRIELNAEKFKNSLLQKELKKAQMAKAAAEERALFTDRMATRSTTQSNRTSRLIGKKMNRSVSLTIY

Compound	pIC50 (WEE1 kinase enzyme)	pIC50 [1]	pIC50 (A427 cell line)
CC(C)n1c(=O)c2cnc(Nc3ccc4c(c3)CCNC4)nc2n1-c1nc(C(C)(C)C)cs1 [Compound No. 1.1, 1-(4-(tert-butyl)thiazol-2-yl)-2-isopropyl-6-((1,2,3,4-tetrahydroisoquinolin-6-yl)amino)-1,2-dihydro-3H-pyrazolo[3,4-d]pyrimidin-3-one]	8.40	–	6.28
CC(C)n1c(=O)c2cnc(Nc3ccc4c(c3)CNCC4)nc2n1-c1nc(C(C)(C)C)cs1 [Compound No. 1.2, 1-(4-(tert-butyl)thiazol-2-yl)-2-isopropyl-6-((1,2,3,4-tetrahydroisoquinolin-7-yl)amino)-1,2-dihydro-3H-pyrazolo[3,4-d]pyrimidin-3-one]	> 9.70	–	6.23
CC(C)(C)c1csc(-n2c3nc(Nc4ccc5c(c4)CCNC5)ncc3c(=O)n2C2CC2)n1 [Compound No. 1.5, 1-(4-(tert-butyl)thiazol-2-yl)-2-cyclopropyl-6-((1,2,3,4-tetrahydroisoquinolin-6-yl)amino)-1,2-dihydro-3H-pyrazolo[3,4-d]pyrimidin-3-one]	7.74	–	5.90
CC(C)(C)c1csc(-n2c3nc(Nc4ccc5c(c4)CNCC5)ncc3c(=O)n2C2CC2)n1 [Compound No. 1.6, 1-(4-(tert-butyl)thiazol-2-yl)-2-cyclopropyl-6-((1,2,3,4-tetrahydroisoquinolin-7-yl)amino)-1,2-dihydro-3H-pyrazolo[3,4-d]pyrimidin-3-one]	8.22	5.95	5.94
CC(C)(C)c1csc(-n2c3nc(Nc4ccc5c(c4)CCNC5)ncc3c(=O)n2CC(F)(F)F)n1 [Compound No. 1.11, 1-(4-(tert-butyl)thiazol-2-yl)-6-((1,2,3,4-tetrahydroisoquinolin-6-yl)amino)-2-(2,2,2-trifluoroethyl)-1,2-dihydro-3H-pyrazolo[3,4-d]pyrimidin-3-one]	7.72	–	5.80
CC(C)(C)c1csc(-n2c3nc(Nc4ccc5c(c4)CNCC5)ncc3c(=O)n2CC(F)(F)F)n1 [Compound No. 1.12, 1-(4-(tert-butyl)thiazol-2-yl)-6-((1,2,3,4-tetrahydroisoquinolin-7-yl)amino)-2-(2,2,2-trifluoroethyl)-1,2-dihydro-3H-pyrazolo[3,4-d]pyrimidin-3-one]	8.52	–	5.62
CCn1c(=O)c2cnc(Nc3ccc4c(c3)CNCC4)nc2n1-c1cccc(C(C)(C)C#N)n1 [Compound No. 1.223, 2-(6-(2-ethyl-3-oxo-6-(1,2,3,4-tetrahydroisoquinolin-7-ylamino)-2,3-dihydro-1H-pyrazolo[3,4-d]pyrimidin-1-yl)pyridin-2-yl)-2-methylpropanenitrile]	8.15	–	6.99

Continued by rising pIC50 (WEE1 kinase enzyme), values first:

pIC50 (WEE1 kinase enzyme)	pIC50 [1]	Compound	pIC50 (A427 cell line)
7.24	–	CC(C)n1c(=O)c2cnc(Nc3ccc4c(c3)CNCC4)nc2n1-c1csc(N2CCOCC2)n1 [Compound No. 1.7, 2-isopropyl-1-(2-morpholinothiazol-4-yl)-6-((1,2,3,4-tetrahydroisoquinolin-7-yl)amino)-1,2-dihydro-3H-pyrazolo[3,4-d]pyrimidin-3-one]	< 4.52
8.00	–	CC(C)(C#N)c1cccc(-n2c3nc(Nc4ccc5c(c4)CNCC5)ncc3c(=O)n2CC(F)(F)F)n1 [Compound No. 1.32, 2-methyl-2-(6-(3-oxo-6-(1,2,3,4-tetrahydroisoquinolin-7-ylamino)-2-(2,2,2-trifluoroethyl)-2,3-dihydro-1H-pyrazolo[3,4-d]pyrimidin-1-yl)pyridin-2-yl)propanenitrile]	6.65
8.05	–	CC(C)(CF)c1cccc(-n2c3nc(Nc4ccc5c(c4)CCNC5(C)C)ncc3c(=O)n2C2CC2)n1 [Compound No. 1.79, 2-cyclopropyl-6-((1,1-dimethyl-1,2,3,4-tetrahydroisoquinolin-6-yl)amino)-1-(6-(1-fluoro-2-methylpropan-2-yl)pyridin-2-yl)-1,2-dihydro-3H-pyrazolo[3,4-d]pyrimidin-3-one]	6.01
8.10	–	CC(C)n1c(=O)c2cnc(Nc3ccc4c(c3)CCNC4)nc2n1-c1csc(N2CCOCC2)n1 [Compound No. 1.3, 2-isopropyl-1-(2-morpholinothiazol-4-yl)-6-((1,2,3,4-tetrahydroisoquinolin-6-yl)amino)-1,2-dihydro-3H-pyrazolo[3,4-d]pyrimidin-3-one]	< 4.52
8.15	–	CCn1c(=O)c2cnc(Nc3ccc4c(c3)CCNC4)nc2n1-c1nc(C(C)(C)C)cs1 [Compound No. 1.10, 1-(4-(tert-butyl)thiazol-2-yl)-2-ethyl-6-((1,2,3,4-tetrahydroisoquinolin-6-yl)amino)-1,2-dihydro-3H-pyrazolo[3,4-d]pyrimidin-3-one]	5.83
8.30	–	CC(C)(C#N)c1cccc(-n2c3nc(Nc4ccc5c(c4)CCNC5(C)C)ncc3c(=O)n2CC(F)(F)F)n1 [Compound No. 1.33, 2-(6-(6-(1,1-dimethyl-1,2,3,4-tetrahydroisoquinolin-6-ylamino)-3-oxo-2-(2,2,2-trifluoroethyl)-2,3-dihydro-1H-pyrazolo[3,4-d]pyrimidin-1-yl)pyridin-2-yl)-2-methylpropanenitrile]	6.29
8.40	7.24	CC(C)n1c(=O)c2cnc(Nc3ccc4c(c3)CNCC4)nc2n1-c1cccc(C2(CO)CC2)n1 [1.224, 1-(6-(1-(hydroxymethyl)cyclopropyl)pyridin-2-yl)-2-isopropyl-6-((1,2,3,4-tetrahydroisoquinolin-7-yl)amino)-1,2-dihydro-3H-pyrazolo[3,4-d]pyrimidin-3-one]	6.61
8.40	–	CCn1c(=O)c2cnc(Nc3ccc4c(c3)CNCC4)nc2n1-c1nc(C(C)(C)C)cs1 [Compound No. 1.8, 1-(4-(tert-butyl)thiazol-2-yl)-2-ethyl-6-((1,2,3,4-tetrahydroisoquinolin-7-yl)amino)-1,2-dihydro-3H-pyrazolo[3,4-d]pyrimidin-3-one]	6.00
8.52	–	CCn1c(=O)c2cnc(Nc3ccc4c(c3)CCNC4)nc2n1-c1cccc(C(C)(C)C#N)n1 [Compound No. 1.4, 2-(6-(2-ethyl-3-oxo-6-((1,2,3,4-tetrahydroisoquinolin-6-yl)amino)-2,3-dihydro-1H-pyrazolo[3,4-d]pyrimidin-1-yl)pyridin-2-yl)-2-methylpropanenitrile]	6.49
9.00	–	O=c1c2cnc(Nc3ccc4c(c3)CCNC4)nc2n(-c2cccc(C3(CO)CC3)n2)n1CC(F)(F)F [1.225, 1-(6-(1-(hydroxymethyl)cyclopropyl)pyridin-2-yl)-6-(1,2,3,4-tetrahydroisoquinolin-6-ylamino)-2-(2,2,2-trifluoroethyl)-1H-pyrazolo[3,4-d]pyrimidin-3(2H)-one]	6.43
